Holding throughout (experiment): Kinase selectivity, P33-radiolabeled assay
Type in all cases: biochemical
Settings in all cases: 10 μM ATP

One assay concerns the target T1, TTBK1 (Homo sapiens, UniProt Q5TCY1).
T1 construct: purchased Reaction Biology Corp
In short, it runs like this:
(§1)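 Each enzyme was exposed to 10 μM compound, with duplicate measurements, in reactions containing 10 μM ATP. Numbers are remaining activity as a percent of the vehicle (DMSO) signal.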

Another assay deals with T2, OSR1/OXSR1 (Homo sapiens, UniProt O95747).
T2 construct: purchased Reaction Biology Corp
T2 sequence (O95747 whole entry): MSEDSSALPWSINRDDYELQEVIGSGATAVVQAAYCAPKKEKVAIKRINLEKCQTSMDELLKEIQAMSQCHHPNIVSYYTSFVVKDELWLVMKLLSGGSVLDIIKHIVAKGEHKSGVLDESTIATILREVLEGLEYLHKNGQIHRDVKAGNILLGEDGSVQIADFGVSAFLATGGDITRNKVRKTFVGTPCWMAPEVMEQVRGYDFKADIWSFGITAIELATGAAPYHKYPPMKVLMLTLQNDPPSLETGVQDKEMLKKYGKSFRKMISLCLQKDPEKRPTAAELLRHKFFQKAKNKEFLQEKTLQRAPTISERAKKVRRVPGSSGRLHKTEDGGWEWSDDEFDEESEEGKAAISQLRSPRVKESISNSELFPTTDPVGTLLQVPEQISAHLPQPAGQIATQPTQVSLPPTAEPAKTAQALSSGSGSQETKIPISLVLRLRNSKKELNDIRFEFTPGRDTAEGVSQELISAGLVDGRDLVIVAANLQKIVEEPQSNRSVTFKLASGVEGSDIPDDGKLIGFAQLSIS
In outline:
as §1

A further assay deals with T3, JAK3 (Homo sapiens, UniProt P52333).
T3 construct: purchased Reaction Biology Corp
T3 sequence (P52333 1-1124): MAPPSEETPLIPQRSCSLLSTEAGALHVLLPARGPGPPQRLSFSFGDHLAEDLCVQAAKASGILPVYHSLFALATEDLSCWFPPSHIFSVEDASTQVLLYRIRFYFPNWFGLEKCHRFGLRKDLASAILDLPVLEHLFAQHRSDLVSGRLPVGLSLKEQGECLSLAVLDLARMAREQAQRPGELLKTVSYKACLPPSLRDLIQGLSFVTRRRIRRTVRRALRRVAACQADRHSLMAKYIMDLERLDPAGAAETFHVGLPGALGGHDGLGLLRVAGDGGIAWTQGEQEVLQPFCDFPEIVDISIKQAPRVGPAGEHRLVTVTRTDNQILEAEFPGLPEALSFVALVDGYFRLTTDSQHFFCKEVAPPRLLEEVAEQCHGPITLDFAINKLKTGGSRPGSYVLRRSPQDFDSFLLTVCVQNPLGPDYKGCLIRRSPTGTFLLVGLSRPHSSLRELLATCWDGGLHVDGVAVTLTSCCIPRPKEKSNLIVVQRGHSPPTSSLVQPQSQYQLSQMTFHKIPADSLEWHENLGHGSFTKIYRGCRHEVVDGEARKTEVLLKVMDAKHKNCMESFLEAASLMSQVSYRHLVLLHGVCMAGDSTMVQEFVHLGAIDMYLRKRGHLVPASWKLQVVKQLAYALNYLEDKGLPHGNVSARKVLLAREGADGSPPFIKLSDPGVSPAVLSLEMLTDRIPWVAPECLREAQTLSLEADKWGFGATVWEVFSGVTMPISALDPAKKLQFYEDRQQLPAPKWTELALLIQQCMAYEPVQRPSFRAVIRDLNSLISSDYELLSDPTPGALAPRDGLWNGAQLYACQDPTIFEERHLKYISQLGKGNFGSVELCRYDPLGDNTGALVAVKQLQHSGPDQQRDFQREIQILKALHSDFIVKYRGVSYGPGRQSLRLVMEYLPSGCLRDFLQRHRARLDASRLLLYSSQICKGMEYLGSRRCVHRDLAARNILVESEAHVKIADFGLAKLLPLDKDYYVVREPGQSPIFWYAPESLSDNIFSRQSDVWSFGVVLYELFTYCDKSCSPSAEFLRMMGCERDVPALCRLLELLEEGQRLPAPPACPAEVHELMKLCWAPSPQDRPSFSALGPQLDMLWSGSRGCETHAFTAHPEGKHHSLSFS
In short, it runs like this:
as §1

For the next assay, the target named is T4, MSK2/RPS6KA4 (Homo sapiens, UniProt O75676).
T4 construct: purchased Reaction Biology Corp
T4 sequence (O75676 whole entry): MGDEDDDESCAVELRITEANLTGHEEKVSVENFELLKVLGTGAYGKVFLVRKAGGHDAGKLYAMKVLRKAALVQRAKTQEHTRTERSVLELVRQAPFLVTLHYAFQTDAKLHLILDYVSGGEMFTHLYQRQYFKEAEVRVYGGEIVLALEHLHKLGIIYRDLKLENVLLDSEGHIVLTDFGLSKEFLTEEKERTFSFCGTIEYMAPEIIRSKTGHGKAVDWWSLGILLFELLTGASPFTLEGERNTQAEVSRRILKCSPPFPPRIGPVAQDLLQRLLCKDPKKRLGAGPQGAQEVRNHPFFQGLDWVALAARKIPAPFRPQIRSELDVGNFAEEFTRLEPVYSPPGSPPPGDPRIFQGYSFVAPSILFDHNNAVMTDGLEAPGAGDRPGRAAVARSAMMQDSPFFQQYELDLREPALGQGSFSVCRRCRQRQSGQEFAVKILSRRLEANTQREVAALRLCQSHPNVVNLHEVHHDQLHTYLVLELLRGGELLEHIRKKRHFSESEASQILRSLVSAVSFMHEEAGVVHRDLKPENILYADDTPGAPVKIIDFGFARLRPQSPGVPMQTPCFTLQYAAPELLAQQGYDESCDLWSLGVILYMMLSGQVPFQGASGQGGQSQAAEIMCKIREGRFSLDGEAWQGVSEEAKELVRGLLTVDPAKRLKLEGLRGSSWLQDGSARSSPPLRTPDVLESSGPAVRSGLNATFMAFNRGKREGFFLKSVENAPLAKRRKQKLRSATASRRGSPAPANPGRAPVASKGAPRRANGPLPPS
In outline:
as §1

The next assay addresses T5, TYRO3/SKY (Homo sapiens, UniProt Q06418).
T5 construct: purchased Reaction Biology Corp
T5 sequence (Q06418 41-890): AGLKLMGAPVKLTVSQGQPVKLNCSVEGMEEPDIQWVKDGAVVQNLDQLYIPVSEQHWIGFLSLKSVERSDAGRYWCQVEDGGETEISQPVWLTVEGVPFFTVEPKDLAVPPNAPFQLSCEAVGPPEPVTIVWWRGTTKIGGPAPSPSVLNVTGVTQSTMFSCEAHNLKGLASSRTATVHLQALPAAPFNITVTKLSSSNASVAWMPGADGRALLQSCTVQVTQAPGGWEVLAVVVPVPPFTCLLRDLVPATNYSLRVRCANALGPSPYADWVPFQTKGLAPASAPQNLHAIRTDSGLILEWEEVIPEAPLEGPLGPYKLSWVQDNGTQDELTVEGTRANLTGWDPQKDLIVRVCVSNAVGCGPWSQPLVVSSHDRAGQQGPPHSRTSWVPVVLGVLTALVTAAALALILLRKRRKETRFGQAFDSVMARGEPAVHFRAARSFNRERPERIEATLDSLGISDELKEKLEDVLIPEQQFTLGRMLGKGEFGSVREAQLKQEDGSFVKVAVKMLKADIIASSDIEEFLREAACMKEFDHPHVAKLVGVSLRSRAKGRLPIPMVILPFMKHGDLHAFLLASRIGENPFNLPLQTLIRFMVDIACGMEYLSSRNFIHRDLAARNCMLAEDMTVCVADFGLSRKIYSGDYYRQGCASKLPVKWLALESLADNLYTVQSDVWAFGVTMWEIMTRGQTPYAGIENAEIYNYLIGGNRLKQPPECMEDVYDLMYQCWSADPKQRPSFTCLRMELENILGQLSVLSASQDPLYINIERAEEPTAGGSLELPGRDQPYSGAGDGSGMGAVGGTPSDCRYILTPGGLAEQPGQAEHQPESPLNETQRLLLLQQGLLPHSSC
In short, it runs like this: as §1

[1] abbreviates: read-out: % Enzyme Activity (relative to DMSO controls) AVG.
Setting [2] is: read-out: % Enzyme Activity (relative to DMSO controls) Data 1.
Where [3] appears, read: read-out: % Enzyme Activity (relative to DMSO controls) Data 2.

Each structure is given as a SMILES string. Like-named read-outs stand apart in the source and are kept apart here.

T1 sequence (Q5TCY1 whole entry): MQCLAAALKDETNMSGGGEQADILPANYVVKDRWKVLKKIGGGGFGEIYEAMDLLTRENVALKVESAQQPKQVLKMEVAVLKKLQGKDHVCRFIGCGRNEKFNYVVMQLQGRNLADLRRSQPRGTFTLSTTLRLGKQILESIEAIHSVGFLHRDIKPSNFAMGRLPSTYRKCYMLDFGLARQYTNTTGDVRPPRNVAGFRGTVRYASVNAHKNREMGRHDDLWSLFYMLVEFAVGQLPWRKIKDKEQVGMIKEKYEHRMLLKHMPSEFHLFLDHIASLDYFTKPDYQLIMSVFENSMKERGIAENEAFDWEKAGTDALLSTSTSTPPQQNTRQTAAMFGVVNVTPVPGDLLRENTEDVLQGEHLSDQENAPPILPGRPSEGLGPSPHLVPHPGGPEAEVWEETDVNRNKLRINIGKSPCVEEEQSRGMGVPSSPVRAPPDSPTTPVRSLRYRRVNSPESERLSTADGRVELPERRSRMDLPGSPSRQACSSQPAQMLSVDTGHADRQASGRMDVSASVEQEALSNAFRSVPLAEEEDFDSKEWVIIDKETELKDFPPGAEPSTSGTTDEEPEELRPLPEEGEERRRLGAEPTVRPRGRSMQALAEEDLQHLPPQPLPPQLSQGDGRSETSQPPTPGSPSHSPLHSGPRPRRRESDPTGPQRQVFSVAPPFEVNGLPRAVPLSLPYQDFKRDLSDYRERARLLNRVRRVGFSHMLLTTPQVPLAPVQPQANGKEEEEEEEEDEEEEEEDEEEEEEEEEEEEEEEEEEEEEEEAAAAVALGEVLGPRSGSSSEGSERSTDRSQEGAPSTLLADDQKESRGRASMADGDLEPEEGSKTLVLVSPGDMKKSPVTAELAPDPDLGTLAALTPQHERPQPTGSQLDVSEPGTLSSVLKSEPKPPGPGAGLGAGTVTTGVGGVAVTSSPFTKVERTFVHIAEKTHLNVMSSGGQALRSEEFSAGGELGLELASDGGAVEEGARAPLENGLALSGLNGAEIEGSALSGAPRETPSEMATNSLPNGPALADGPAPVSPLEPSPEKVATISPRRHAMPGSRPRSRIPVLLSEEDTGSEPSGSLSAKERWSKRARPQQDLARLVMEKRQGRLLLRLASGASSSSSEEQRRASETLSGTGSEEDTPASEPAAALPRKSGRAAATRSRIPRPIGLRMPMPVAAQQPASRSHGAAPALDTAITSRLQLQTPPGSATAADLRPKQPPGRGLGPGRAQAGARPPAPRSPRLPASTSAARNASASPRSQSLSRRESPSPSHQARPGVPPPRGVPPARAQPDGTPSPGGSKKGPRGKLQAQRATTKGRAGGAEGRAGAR

For the compound `CC(C)(C)C(=O)N1N=CC[C@H]1c1ccccc1` [GSK′963], the remaining activity at 10 µM was 110% at TTBK1 (setting [1]); 109% at TTBK1 (setting [2]); 111% at TTBK1 (setting [3]); 120% on OSR1/OXSR1 (setting [1]); 127% at OSR1/OXSR1 (setting [2]); 112% at OSR1/OXSR1 (setting [3]). Moreover, the remaining activity at 10 µM at JAK3 (setting [1]) was determined as 106%; on JAK3 (setting [2]), 105%; on JAK3 (setting [3]), 106%; on MSK2/RPS6KA4 (setting [1]), 104%; at MSK2/RPS6KA4 (setting [2]), 104%; on MSK2/RPS6KA4 (setting [3]), 103%. Further, the figures for the remaining activity at 10 µM on TYRO3/SKY (setting [1]), on TYRO3/SKY (setting [2]) and on TYRO3/SKY (setting [3]) were 97.2%, 97.1% and 97.3%, respectively.

The values above are taken from PMC4979471 (Cell Death Discovery, 2015).
